Values joined by “and” are separate entries in the source; they are usually repeats but may differ in a detail not shown here. Equal entries are not always repeated. Where two headings read alike, the source gives them in different places.

For orientation: half-life means how long it takes for the measured level to halve. Read a high half-life as slow decline. Broadly, the Cmax is the peak of the concentration-time curve. As usually defined, the Tmax is the time from dosing to the highest level. What is called IC50 is the concentration at which inhibition is half-maximal. By Kd is commonly meant the equilibrium constant for the complex coming apart.

The nature of data set [1]: Measurement of serum half life (pharmacokinetics) in mice. The class given is in vivo. The procedure:
Tests were performed to determine whether JWZ-7-7 is capable of maintaining sufficiently high blood levels for killing SCLC and DLBCL. Formulations for either IV or IP administration were prepared as follows:
• Concentration: 0.6 mg/ml • Composition: 5/5/90 DMSO/Tween80/saline • Dose: 5 μl/g body weight • Appearance: clear solution Formulation #2—Used for IP Animals • Concentration: 1 mg/ml • Composition: 5/5/90 DMSO/Tween80/saline • Dose: 10 μl/g body weight • Appearance: clear solution
After either IV or IP injection of 3 mice each with either 3 mg/Kg (IV) or 10 mg/Kg(IP), the levels of JWZ-7-7 were measured at the indicated intervals. The calculated T1/2 is 4.47 hours for IV injection and 5.63 hours for […].

The subject of a further data set is DMS-79. In words: Dose response on viability of small cell lung cancer line, resazurin assay. It counts as cell-based. The settings on record: Homo sapiens; DMS-79, 72 h treatment. The protocol:
(§1) IC50 of JWZ-7-7, BI-3812, JQ1, and combinations were calculated based on a dose response curve on three small cell lung cancer lines (FIG. 5). The dose response curve on viability was performed in technical replicates and biological triplicate after treating cells for 72 hours across a broad range of concentrations via serial dilutions. Viable cells were measured after treatment via a resazurin assay. The signal for viable assays was normalized to the DMSO treated negative control. A four-parameter non-linear fit was performed to fit a curve to calculate the IC50 for each of the cell lines. The table below describes the calculated IC50 across JWZ-7-7, JQ1, BI-3812 and combination of JQ1 and BI-3812 after 72 h treatment in technical replicates and biological triplicates.
For orientation: Resazurin is reduced to fluorescent resorufin, in cell work by metabolically active cells.

A further data set concerns NCI-H2196. Described as above. The class given is cell-based. The settings on record: Homo sapiens; NCI-H2196, 72 h treatment. The procedure:
as §1

The subject of another data set is NCI-H1105. The description is as above. The class given is cell-based. The settings on record: NCI-H1105, 72 h treatment; read-out: IC50. The procedure:
as §1

The next data set deals with T1, BRD4^BD1 (Homo sapiens, UniProt O60885).
T1 construct: 6xHis-TEV (N, cleaved yes)
Description: Isothermal calorimetry (ITC), binary titration. To be noted: read-out: KD BRD4:TCIP1. The class given is binding. The text has this:
The first one or two injections and outliers from instrument noise were routinely excluded. Data was fit to a one-site model using MicroCal LLC Origin software.
One reason for a broadening of the hook effect is the formation of cooperative protein-protein interactions induced by the drug, such as a molecular glue.

In data set [2] the test system is KARPAS422. In words: Cell cycle and TUNEL analysis in KARPAS422 cells. The class given is cell-based, human. The protocol:
Cells were incubated for 15 minutes at RT, then immediately measured on a BD Accuri. Gates were drawn based off single-stain and no-stain controls. For cell cycle and TUNEL analysis, cells plated at 1 M/mL were treated with drug for indicated timepoints and doses and pulsed with 10 μM ethynyl-EdU (Thermo #C10424) for 2 hours prior to harvesting on ice. 1 M cells were counted and washed in 2.5% FBS/PBS. Cells were resuspended at 10 M/mL and fixed in 4% PFA, washed, and permeabilized in 0.5% Triton-X100/PBS. […] Gates were drawn based off single-stain and no-stain controls and kept constant across conditions. Cancers can evade cell killing by many chemotherapeutics that function only during a specific stage of the cell cycle. […] The assay allows the analysis of the percentage of apoptotic cells in each cell population: G0/G1, G2/M, and S phase cells (FIG. 34). […] The finding implies that unlike many conventional chemotherapeutics, BRD4-BCL6-TCIPs could kill cancer cells without periods of potential insensitivity.

The subject of data set [3] is KARPAS422. Description: Annexin V / 7-AAD apoptosis assay in KARPAS422 cells. It counts as cell-based, human. The protocol: For annexin V assays, 500,000 cells plated at 1 M/mL treated with drug for indicated timepoints and doses were harvested on ice and washed twice in 2.5% FBS/PBS. 2.5 μL of 7-AAD and 2.5 μL of FITC-Annexin V (Biolegend #640922) were added. Cells were incubated for 15 minutes at RT, then immediately measured on a BD Accuri. Gates were drawn based off single-stain and no-stain controls. For cell cycle and TUNEL analysis, cells plated at 1 M/mL were treated with drug for indicated timepoints and doses and pulsed with 10 μM ethynyl-EdU (Thermo #C10424) for 2 hours prior to harvesting on ice. 1 M cells were counted and washed in 2.5% FBS/PBS. Cells were resuspended at 10 M/mL and fixed in 4% PFA, washed, and permeabilized in 0.5% Triton-X100/PBS. […] After washes, the sample was incubated with 2 μL 7-AAD and 5 μL RNAseA for 30 minutes at RT in the dark, washed, and measured on a BD Accuri. Gates were drawn based off single-stain and no-stain controls and kept constant across conditions.

[4] abbreviates: mouse, 3 mg/Kg IV, individual mice and Avg., 3 mg/kg.
Where [5] appears, read: mouse, 3 mg/Kg IV, individual mice and Avg., 3 mg/kg, mean.
The mark [6] stands for this setting: mouse, 10 mg/Kg IP, individual mice and Avg., 10 mg/kg.
Where [7] appears, read: mouse, 10 mg/Kg IP, individual mice and Avg., 10 mg/kg, mean.

Turning to `CNC(=O)COc1cc2cc(Nc3nc(N4CCC(C(=O)NCCCCCCCNC(=O)C[C@@H]5N=C(c6ccc(Cl)cc6)c6c(sc(C)c6C)-n6c(C)nnc65)CC4)ncc3Cl)cc(OC)c2n(C)c1=O` [JWZ-7-7, (S)-1-(5-chloro-4-((8-methoxy-1-methyl-3-(2-(methylamino)-2-oxoethoxy)-2-oxo-1,2-dihydroquinolin-6-yl)amino)pyrimidin-2-yl)-N-(7-(2-(4-(4-chlorophenyl)-2,3,9-trimethyl-6H-thieno[3,2-f][1,2,4]triazolo[4,3-a][1,4]diazepin-6-yl)acetamido)heptyl)piperidine-4-carboxamide], the half-life is 5.63 h in data set [1] (C57BL/6, mouse, serum, ip, 10 mg/kg, 10 mg/Kg IP, individual mice and Avg.); 4.47 h in data set [1] (mouse, serum, iv, 3 mg/kg, 3 mg/Kg IV, individual mice and Avg.). Further, in data set [1] (mouse), the Stability in serum entry is reported as “stable in serum”. Besides, the “AUC% Extrap” value was 6.66% and 9.35% and 9.79% in data set [1] (setting [4]); 8.60% in data set [1] (setting [5]); 42.22% and 42.00% and 38.85% in data set [1] (setting [6]); 41.03% in data set [1] (setting [7]). Also, the AUCINF_obs in data set [1] (setting [4]) is 797713 ng·min/mL and 444167 ng·min/mL and 988029 ng·min/mL; in data set [1] (setting [5]) it was 743303 ng·min/mL; in data set [1] (setting [6]), 174254 ng·min/mL and 349182 ng·min/mL and 315593 ng·min/mL; in data set [1] (setting [7]), 279676 ng·min/mL. Also, the AUClast in data set [1] (setting [4]) was 744580 min*ng/mL and 12.11 μM · hr and 402652 min*ng/mL and 6.55 μM · hr and 891309 min*ng/mL and 14.50 μM · hr; in data set [1] (setting [5]), 679514 min*ng/mL and 11.06 μM · hr; in data set [1] (setting [6]) it was 100685 min*ng/mL and 1.64 μM · hr and 202511 min*ng/mL and 3.29 μM · hr and 192976 min*ng/mL and 3.14 μM · hr; in data set [1] (setting [7]), 165391 min*ng/mL and 2.69 μM · hr. The CI_obs is 0.228 L/h/kg and 0.408 L/h/kg and 0.18 L/h/kg in data set [1] (setting [4]); 0.27 L/h/kg in data set [1] (setting [5]). Further, the Cmax in data set [1] (setting [4]) is 31.1 µg/mL and 14.5 µg/mL and 36.5 µg/mL; in data set [1] (setting [5]) it was 27.367 µg/mL; in data set [1] (mouse, 3 mg/Kg IV, individual mice and Avg., 3 mg/kg, mean, read-out: Cmax), 26.7 µM; in data set [1] (mouse, 3 mg/Kg IV, individual mice and Avg., 3 mg/kg, read-out: Cmax), 30.4 µM and 14.2 µM and 35.6 µM; in data set [1] (setting [6]) it was 0.389 µg/mL and 0.805 µg/mL and 0.885 µg/mL; in data set [1] (setting [7]), 0.693 µg/mL. For the same compound, the Cmax in data set [1] (mouse, 10 mg/Kg IP, individual mice and Avg., 10 mg/kg, mean, read-out: Cmax) was 0.68 µM; in data set [1] (mouse, 10 mg/Kg IP, individual mice and Avg., 10 mg/kg, read-out: Cmax) it was 0.38 µM and 0.79 µM and 0.86 µM. For the same compound, the MRTINF_obs is 2.39 h and 2.14 h in data set [1] (setting [4]); 2.04 h in data set [1] (setting [5]). Moreover, the T1/2 in data set [1] (setting [4]) is 3.74 h and 3.93 h and 5.73 h; in data set [1] (setting [6]), 5.48 h and 6.32 h and 5.08 h. For the same compound, the Vss_obs is 0.36 L/kg and 0.97 L/kg and 0.39 L/kg in data set [1] (setting [4]); 0.57 L/kg in data set [1] (setting [5]). Further, the Cl_obs was 3.44 L/h/kg and 1.72 L/h/kg and 1.9 L/h/kg in data set [1] (setting [6]); 2.35 L/h/kg in data set [1] (setting [7]). In addition, the time to peak (Tmax) in data set [1] (setting [6]) was 0.50 h and 1.00 h; in data set [1] (setting [7]), 0.53 h; in data set [1] (mouse, serum, iv, 3 mg/kg, 3 mg/Kg IV, individual mice and Avg., read-out: Tmax), 0.08 h. The MRT inf in data set [1] (mouse, serum, iv, 3 mg/kg, 3 mg/Kg IV, individual mice and Avg., read-out: MRTINF_obs) was 1.59 h. Further, the figures for the IC50 in the data set with DMS-79, in the data set on NCI-H2196 and with NCI-H1105 were 0.066 µM, 0.081 µM and 0.075 µM, respectively.

On to `CNC(=O)COc1cc2cc(Nc3nc(N4CCC(C(=O)NCCCCCCCNC(=O)C[C@@H]5N=C(c6ccc(Cl)cc6)c6c(sc(C)c6C)-n6c(C)nnc65)CC4)ncc3Cl)cc(OC)c2n(C)c1=O` [TCIP1], for which the Kd on BRD4^BD1 stood at 5.08 µM. For the same compound, the Cell cycle block entry with KARPAS422 [2] (KARPAS422) was “both a G1/S and G2/M block”. In addition, in the data set with KARPAS422 [2] (KARPAS422, 100 nM), the “Cell cycle phases in which cell death occurs (TUNEL)” value is listed as “all phases of the cell cycle”. The “Time to detectable apoptosis” value in the data set with KARPAS422 [3] was in the range of 4 to 8 h.

The values are drawn from US12685777B2, “Compositions, systems, and methods for modulating a target gene” (The Board of Trustees of the Leland Stanford Junior …, priority 2022, dated 2026).
